From patent publication US20120270864A1, “2-QUINOLINONE AND 2-QUINOXALINONE-DERIVATIVES AND THEIR USE AS ANTIBACTERIAL AGENTS” (ASTRAZENECA AB, priority 2006, published 2012)
Values after ≈ are worked out from the molar mass of the structure shown.

What was measured:
Format in all cases: cell-based
[1] = tested on: Staphylococcus aureus (Sau) 516 cells; experiment: Bacterial Susceptibility Testing Methods 2 (microbroth dilution, growth inhibition); conditions: Staphylococcus aureus, Tested Concentration 8 μg/mL; Staphylococcus aureus 516 cell growth suppressed compared to untreated sample
Source text: Compounds may be tested for antimicrobial activity by susceptibility testing using microbroth dilution methods recommended by CSLI. Compounds may be dissolved in dimethylsulfoxide and tested in 10 doubling dilutions in the susceptibility assays such that the final dimethylsulfoxide concentration in the assay is 2% (v/v). The Staphylococcus aureus (Sau) 516 cells used in the assay may be grown overnight on appropriate agar media and then suspended in the NCCLS-recommended liquid susceptibility-testing media. […] Plates may be incubated under appropriate conditions of atmosphere and temperature and for times according to NCCLS standard methods prior to being read. As used in Table 1 below, the term “inhibition” refers to the percentage of Staphylococcus aureus 516 cell growth that is suppressed (compared to an untreated sample) by the compound of the indicated example number. When tested in the above in-vitro assay, the compounds and salts of the example numbers listed below were tested at the indicated concentrations, providing the indicated inhibitions. In most instances, the highest concentrations at which the compounds were tested was 8 μg/mL. In some instances, however, compounds were tested at concentrations higher than 8 μg/mL, typically when the concentration was first measured in μM and was subsequently converted to μg/mL. In those cases in which compounds were tested at more than one concentration higher than 8 μg/mL, the concentration closest to 8 μg/mL is provided below.

[2] = tested on: Escherichia coli; experiment: Bacterial Susceptibility Testing Methods 1 (MIC in liquid media, 96 well format); conditions: lowest drug concentration able to reduce growth by 80% or more, 37° C., 24 hours, read-out: MIC against Escherichia coli
[3] = tested on: Staphylococcus aureus; experiment: as above; conditions: lowest drug concentration able to reduce growth by 80% or more, 37° C., 24 hours, read-out: MIC against Staphylococcus aureus
Source text: Compounds may be tested for antimicrobial activity by susceptibility testing in liquid media in a 96 well format. Compounds may be dissolved in dimethylsulfoxide and tested in 10 doubling dilutions in the susceptibility assays. The organisms used in the assay may be grown overnight on suitable agar media and then suspended in a liquid medium appropriate for the growth of the organism. The suspension may be adjusted to be equal to a 0.5 McFarland and a further 1 in 10 dilution may be made into the same liquid medium to prepare the final organism suspension in 100 μL. Plates may be incubated under appropriate conditions at 37° C. for 24 hours prior to reading. The Minimum Inhibitory Concentration (MIC) was determined as the lowest drug concentration able to reduce growth by 80% or more.
Compounds were evaluated against a panel of Gram-positive species, including Staphylococcus aureus, Streptococcus pneumoniae, Streptococcus pyogenes, and Enterococcus faecium. In addition, compounds were evaluated against a panel of Gram-negative species including Haemophilus influenzae, Escherichia coli and Moraxella catarrhalis.

Compound `N#Cc1ccc2ccc(=O)n(CCN3CC[C@H](NCc4ccc5c(n4)NC(=O)CO5)[C@H](O)C3)c2c1` [Example 2, 1-[2-((3R,4S)-3-Hydroxy-4-{[(3-oxo-3,4-dihydro-2H-pyrido[3,2-b][1,4]oxazin-6-yl)methyl]amino}piperidin-1-yl)ethyl]-2-oxo-1,2-dihydro quino line-7-carbonitrile] has an inhibition at 8 µg/mL [1] of 100%, an MIC [2] of 0.5 mg/L (≈ 1.05 µM) and an MIC [3] of 0.25 mg/L (≈ 0.527 µM).
